22 molecules from ChEMBL document CHEMBL4020772, “Alkaloids from aerial parts of Houttuynia cordata and their anti-inflammatory activity” (Bioorg Med Chem Lett, 2017) can be followed below.

Structures are written as SMILES. pIC50: −log10 of the molar value. Where only a bound is given, the exact number is not on record here.

The experiment concerns RAW264.7. As to the kind of experiment: Antiinflammatory activity in mouse RAW264.7 cells assessed as reduction in LPS-induced NO production pretreated for 30 mins followed by LPS stimulation for 24 hrs by Griess assay. Type of experiment: functional, cell-based.
Turning to `O=C(NC[C@@H](O[C@@H]1O[C@H](CO)[C@@H](O)[C@H](O)[C@H]1O)c1ccccc1)c1cccc(O)c1`, the pIC50 is below 5.00. For the molecule `NC(=O)c1cccnc1` [NIACINAMIDE], the pIC50 was below 5.00. For the molecule `COc1c(O)cc2c3c1-c1ccccc1CC3N(C)CC2` (configuration not stated), the negative-log IC50 (pIC50) was below 5.00. The figure for `COc1cc2c(cc1O)CC1NCCc3cc(OC)c(OC)c-2c31` (configuration not stated) is below 5.00; for `COc1cc2c(cc1O)CC1c3c(cc(OC)c(OC)c3-2)CCN1C` (configuration not stated) it is below 5.00. As to `COc1cc2c(cc1O)CC1NCCc3cc(OC)c(O)c-2c31` (configuration not stated), the pIC50 is below 5.00.

Turning to `COc1c(O)cc2c3c1-c1ccccc1CC3NCC2` (configuration not stated), the pIC50 was below 5.00. To `OCc1ccc(-c2nccc3c2[nH]c2ccccc23)o1` [PERLOLYRIN] belongs 5.06; to `O=c1ccc2ccccc2[nH]1`, below 5.00; to `Nc1ncnc2c1ncn2[C@@H]1O[C@H](CO)[C@@H](O)[C@H]1O` [ADENOSINE], below 5.00. To `O=C(NC[C@@H](O)c1ccccc1)c1ccc(O)cc1` belongs below 5.00; to `COc1cc2c3c(c1OC)-c1ccccc1CC3NCC2` (configuration not stated) [NORNUCIFERINE], below 5.00; to `O=C(NC[C@@H](O[C@@H]1O[C@H](CO)[C@@H](O)[C@H](O)[C@H]1O)c1ccccc1)c1ccccc1`, below 5.00. To `COc1c(O)cc2c3c(cc4ccccc4c13)NC(=O)C2=O` [NORARISTOLODIONE] belongs below 5.00; to `C[C@@H]1C[C@H]2[C@@H]3CCC4=CC(=O)C=C[C@]4(C)[C@@]3(F)[C@@H](O)C[C@]2(C)[C@@]1(O)C(=O)CO` [DEXAMETHASONE], 5.15; to `C[S+]([O-])C[C@H]1O[C@@H](n2cnc3c(N)ncnc32)[C@H](O)[C@@H]1O` (some centres not stated), below 5.00. Regarding `O[C@]12CO[C@@H](Cc3nccc4c3[nH]c3ccccc34)[C@H]1O2`, the pIC50 was below 5.00. As for `COc1cc2c(cc1O)CC1c3c(cc(OC)c(O)c3-2)CCN1C` (configuration not stated), the pIC50 was below 5.00.

Regarding `O=c1ccn([C@@H]2O[C@H](CO)[C@@H](O)[C@H]2O)c(=O)[nH]1` [URIDINE], the pIC50 is below 5.00. `O=C(O)c1c[nH]c2ccccc12`: the pIC50 is below 5.00. For `COCc1ccc(C=O)n1CCCC(=O)O`, the pIC50 is below 5.00. To `COc1cc(CC2c3cc(O)c(OC)cc3CCN2C)ccc1O` (configuration not stated) belongs below 5.00.
